Test [1] concerns the target human mitochondrial Complex I (Homo sapiens, UniProt O75251+O75306+P03886). It counts as biochemical. On the procedure:
Mitochondria was extracted from MDA-MB-453 tumor, and the Complex I inhibitory activity of the test compound was evaluated.
Human PIK3CA mutation-positive breast cancer cell line MDA-MB-453 cells were subcutaneously implanted into nude mice, MDA-MB-453 tumor was excised, a mitochondria extraction solution (0.25 M Sucrose, 2 mM EDTA, 10 mM Tris/HCl pH 7.5) of 9 times of tumor weight was added thereto, and crushing was carried out thereon. The reaction mixture was centrifuged at 600×g and 4° C. for 10 minutes to obtain a supernatant, and the supernatant was centrifuged at 14000×g and 4° C. for 10 minutes, thereby obtaining a pellet. The pellet was suspended in 10 mM Tris/HCl pH 7.5 of 5 times of the excised tumor weight, thereby obtaining a human mitochondrial suspension.
Next, 25 μl of the human mitochondrial suspension per 1 ml of Complex I activity measurement solution (200 mM potassium phosphate pH 7.6, 0.35% Bovine Serum Albumin (BSA), 60 μM 2,6-dichlorophenol-indophenol, 70 μM decylubiquinone, 1 μM antimycin) was added. After dispensed into a 96 or 384-well plate, a test compound (from 10000 nM to 0.3 nM) and DMSO which is a solvent for the test compound as a negative control were added such that a final concentration of Rotenone which is a Complex I inhibitor as a positive control becomes 1 μM. Further, NADH was added so as to have a final concentration of 0.2 mM, and a change in absorbance at a wavelength of 600 nm using SpectraMax (manufactured by Molecular Devices LLC) set to 37° C. in advance was measured. […] Moreover, in the Table, Ex indicates Example No. (the same shall apply hereinafter.).

Test [2] has as its system human PIK3CA mutation-positive breast cancer cell line MDA-MB-453 cells. In words: Scaffold independent cell proliferation inhibitory effect, MDA-MB-453 cells. It counts as cell-based. Particulars: non-adhesive plate, 4 days, CellTiter-Glo, read-out: IC50 (cell proliferation inhibition). As for the experimental part:
The effect on proliferation of cancer cells of the test compound was evaluated.
Measurement (colony method) of the scaffold independent cell proliferation is known as a system in which the anti-cancer effect of the test compound is examined. As a method for measuring cell-non-adhesive proliferation substituting the colony method, there is a method of using a non-adhesive plate as follows.
Thereafter, the cells were cultured for 4 days at 37° C. in the absence of CO2, and a cytometric reagent (CellTiter-Glo Luminescent Cell Viability assay manufactured by Promega Corporation) was added. The resultant product was stirred for 30 minutes, and then measurement was carried out using a luminescence measurement apparatus (ARVO manufactured by Perkin Elmer Inc.).

Test [3] relates to MDA-MB-453 cells. In words: Anti-tumor effect in MDA-MB-453 cell cancer-bearing mouse. Type of test: in vivo. The settings on record: oral, once a day for 15 days, Balb/c nude mouse. On the procedure:
3×10^6 cells of MDA-MB-453 cells which were suspended with PBS were subcutaneously injected to be planted in the back of a 5 to 6 weeks old male Balb/c nude mouse (provided by Charles River Laboratories, Japan). 10 days after planting, the test compound was administered. The test was carried out on respective five mice of the solvent group and the test compound administered group, and 6% aqueous cyclodextrin solution was administered to the solvent group, and a mixture of 6% aqueous cyclodextrin solution and the test compound (1 or 3 mg/kg) was orally administered to the test compound administered group. Administration was carried out once a day for 15 days, and body weight and tumor size were measured approximately every other day. The following equation was used to calculate the tumor volume.

For test [4], the system named is AMPK. In words: Evaluation of AMPK activation effect (phosphorylation of ACC Ser79, Cell ELISA in MDA-MB-453 cells). Type of test: cell-based, human. Particulars: 2 hours. On the procedure: By measuring phosphorylation of 79th serine (Ser79) of Acetyl-CoA Carboxylase (ACC) which is a substrate of AMPK with Cell ELISA, the AMPK activation effect by the test compound was evaluated.
In order to make MDA-MB-453 cell become 15000 cells per well, each 36 μl was seeded in Leibovitz's L-15 medium including 10% fetal bovine serum (manufactured by Life Technologies Corp.) in a 384 well plate, followed by culturing at 37° C. overnight in the absence of CO2. […] After the incubation, 20 μl of a 40% glyoxal solution (Nacalai Tesque) was added to each well, and then cells were fixed by leaving to stand at room temperature for 30 minutes. Thereafter, the supernatant was removed by centrifuging the plate, and then 0.1% Triton X-100-containing Phosphate-Buffered Saline (PBS) was added to each well by 20 followed by incubating at room temperature for 10 minutes. The 0.1% Triton X-100-containing PBS was removed by centrifuging for 8 seconds at 800 rpm (all solution removal operation by centrifuge described below were carried out under the same conditions), and then a blocking solution (ODYSSEY Blocking Buffer; manufactured by Li—COR Biosciences) was added to each well by 20 μl, followed by leaving to stand at room temperature for 1 hour. The blocking solution was removed by centrifuging, with the exception of the blocking solution by centrifugation, and then a blocking solution which was diluted such that the amount of phosphorylation antibody (manufactured by Cell Signaling Technology, Inc) of ACC Ser79 as a primary antibody is 1/500 was added to each well by 10 followed by leaving to stand at 4° C. overnight. The following day, the reaction liquid was removed by centrifuging the plate, and then 0.05% Tween-20-containing Tris-Buffered Saline (TBS) (manufacture by Thermo Scientific Inc.; used in 1× in which 20×TBS Tween-20 was diluted with ion-exchange water) was added to each well by 25 followed by washing each well by centrifugal removal. The washing of each well was repeated for a total of 3 times. After washing, a blocking solution which was diluted such that the amount of IRDye 800CW Goat anti-Rabbit IgG (manufactured by Li—CoR Biosciences) as a secondary antibody is 1/1000 was added to each well by 10 μl, followed by leaving to stand at room temperature for 1 hour. After the secondary antibody reaction, the reaction liquid was removed by centrifuging the plate, and then each well was washed three times with 0.05% Tween-20-containing TBS in the same manner as after the primary antibody reaction. After the washing solution was removed, without change, the plate was air-dried at room temperature for 3 hours or longer and signals were measured by Aerius (manufactured by Li—CoR Biosciences).
A general note: ELISA stands for enzyme-linked immunosorbent assay.

[5] abbreviates: mitochondria from MDA-MB-453 tumor, absorbance 600 nm, 37° C.; read-out: IC50 (Complex I inhibition).

The values that follow come from patent US9428501B2, “Bicyclic nitrogen-containing aromatic heterocyclic amide compound” (ASTELLAS PHARMA INC., priority 2013, dated 2016).

Read-outs that look alike come from different tables or passages of the source.

For orientation: EC50 means the concentration at which the effect is half-maximal.

Chain of human mitochondrial Complex I (O75251 39-213 limits assumed): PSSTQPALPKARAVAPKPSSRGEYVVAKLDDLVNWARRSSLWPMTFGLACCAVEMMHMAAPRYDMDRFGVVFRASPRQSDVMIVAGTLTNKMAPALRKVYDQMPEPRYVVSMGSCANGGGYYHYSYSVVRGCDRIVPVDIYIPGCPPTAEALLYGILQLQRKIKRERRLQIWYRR
Chain of human mitochondrial Complex I (O75306 34-463 limits assumed): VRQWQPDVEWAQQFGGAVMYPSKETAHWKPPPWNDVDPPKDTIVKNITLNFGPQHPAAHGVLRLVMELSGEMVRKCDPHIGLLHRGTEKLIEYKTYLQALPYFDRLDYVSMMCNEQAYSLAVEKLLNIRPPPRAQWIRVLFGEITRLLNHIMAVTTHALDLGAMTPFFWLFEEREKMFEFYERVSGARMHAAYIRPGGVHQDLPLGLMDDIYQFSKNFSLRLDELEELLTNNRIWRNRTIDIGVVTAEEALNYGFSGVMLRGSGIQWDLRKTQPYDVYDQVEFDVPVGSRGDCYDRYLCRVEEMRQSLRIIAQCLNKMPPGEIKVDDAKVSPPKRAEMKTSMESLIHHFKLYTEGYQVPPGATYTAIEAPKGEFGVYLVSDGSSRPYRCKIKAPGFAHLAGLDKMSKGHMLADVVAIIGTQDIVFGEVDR
Chain of human mitochondrial Complex I (P03886 whole entry): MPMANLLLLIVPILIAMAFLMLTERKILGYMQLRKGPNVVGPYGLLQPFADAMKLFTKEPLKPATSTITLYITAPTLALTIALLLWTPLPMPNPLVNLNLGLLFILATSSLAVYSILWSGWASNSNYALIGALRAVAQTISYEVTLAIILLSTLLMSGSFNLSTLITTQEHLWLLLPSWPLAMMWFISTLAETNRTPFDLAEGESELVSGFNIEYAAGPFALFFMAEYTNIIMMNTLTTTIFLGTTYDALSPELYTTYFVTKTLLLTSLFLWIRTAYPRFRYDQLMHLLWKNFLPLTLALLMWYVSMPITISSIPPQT

`COc1cnc(CN2CCC(c3ccc4c(c3)cc(C(=O)N3CCN(Cc5ccc(C#N)cc5)CC3)n4C)CC2)cn1` [Ex 79]: the IC50 in test [1] (setting [5]) was determined as 120 nM; in test [2] it was 7.8 nM. In addition, in test [3] (1 mg/kg), the “Anti-tumor effect, regression rate” value stood at 43% regression. Moreover, in test [4], the EC50 stood at 3.3 nM.
For `COc1ccc(CN2CCC(c3ccc4[nH]c(C(=O)N5CCN(Cc6ccc(C(F)(F)F)cc6)CC5)nc4c3)CC2)cn1` [Example 1, (5-{1-[(6-methoxypyridin-3-yl)methyl]piperidin-4-yl}-1H-benzimidazol-2-yl){4-[4-(trifluoromethyl)benzyl]piperazin-1-yl}methanone ditosylate], the “Anti-tumor effect, regression rate” value in test [3] (3 mg/kg) was found to be 26% regression.
On to `COc1cnc(CN2CCC(c3ccc4[nH]c(C(=O)N5CCN(Cc6ccc(C(F)(F)F)cc6)CC5)nc4c3)CC2)cn1` [Example 7, (5-{1-[(5-methoxypyrazin-2-yl)methyl]piperidin-4-yl}-1H-benzimidazol-2-yl){4-[4-(trifluoromethyl)benzyl]piperazin-1-yl}methanone ditosylate], for which the IC50 in test [1] (setting [5]) came out at 75 nM; in test [2] (Homo sapiens, 96 h), 12 nM. Moreover, the “Anti-tumor effect, regression rate” value in test [3] (3 mg/kg) turned out to be 49% regression.
As for `Cc1cnc(CN2CCC(c3ccc4nc(C(=O)N5CCN(Cc6ccc(C(F)(F)F)cc6)CC5)[nH]c4c3)CC2)cn1.Cl.Cl.Cl` [Example 8, (6-{1-[(5-methylpyrazin-2-yl)methyl]piperidin-4-yl}-1H-benzimidazol-2-yl){4-[4-(trifluoromethyl)benzyl]piperazin-1-yl}methanone trihydrochloride], the IC50 is 83 nM in test [1] (read-out: IC50 (Complex I inhibition); mitochondria from MDA-MB-453 tumor, absorbance 600 nm, 37° C.) and 26 nM in test [2] (Homo sapiens, 96 h). Moreover, the “Anti-tumor effect, inhibition rate” value in test [3] (3 mg/kg) turned out to be 88% inhibition. Moreover, in test [4], the EC50 stood at 13 nM.
Consider `COc1ccc(CN2CCC(c3ccc4nc(C(=O)N5CCN(Cc6ccc(C(F)(F)F)cc6)CC5)[nH]c4c3)CC2)cc1` [Example 14], for which the IC50 in test [2] (Homo sapiens, 96 h) turned out to be 7.6 nM. This compound also showed an EC50 in test [4] of 34 nM.
As for `COc1ccc(CN2CCC(c3ccc4nc(C(=O)N5CCN(Cc6ccc(C(F)(F)F)cc6)CC5)n(C)c4c3)CC2)cn1` [Example 18], in test [4], it took 3 nM to reach a half-maximal effect (EC50).
`COc1ccc(CN2CCC(c3ccc4c(c3)nc(C(=O)N3CCN(Cc5ccc(C(F)(F)F)cc5)CC3)n4C)CC2)cn1` [Example 19]: the IC50 in test [2] (Homo sapiens, 96 h) amounted to 8.5 nM. The same compound returned a concentration giving a half-maximal response (EC50) in test [4] of 10 nM.
In the case of `COc1ccc(CN2CCC(c3ccc4nc(C(=O)N5CCN(Cc6ccc(C#N)cc6)CC5)[nH]c4c3)CC2)cn1` [Example 23], the IC50 in test [1] (setting [5]) was found to be 160 nM; in test [2] (Homo sapiens, 96 h), 40 nM. In addition, the half-maximal effective concentration (EC50) in test [4] turned out to be 19 nM.
In test [4], `COc1ccc(CN2CCC(c3ccc4nc(C(=O)N5CCN(Cc6ccc(C(F)(F)F)cc6)CC5)cn4c3)CC2)cn1` [Example 35] displayed a concentration giving a half-maximal response (EC50) of 3.6 nM.
In the case of `COc1ccc(CN2CCC(c3ccn4cc(C(=O)N5CCN(Cc6ccc(C(F)(F)F)cc6)CC5)nc4c3)CC2)cn1` [Example 36, (7-{1-[(6-methoxypyridin-3-yl)methyl]piperidin-4-yl}imidazo[1,2-a]pyridin-2-yl){4-[4-(trifluoromethyl)benzyl]piperazin-1-yl}methanone ditosylate], the IC50 in test [1] (setting [5]) was 55 nM; in test [2] (Homo sapiens, 96 h), 11 nM. For the same compound, the “Anti-tumor effect, regression rate” value in test [3] (3 mg/kg) was found to be 10% regression. For the same compound, a half-maximal effect in test [4] (EC50) was put at 5.1 nM.
For `COc1ccc(CN2CCC(c3ccc4nc(C(=O)N5CCN(Cc6ccc7c(c6)OC(F)(F)O7)CC5)[nH]c4c3)CC2)cn1` [Example 37], the IC50 in test [1] (setting [5]) stood at 29 nM; in test [2] (Homo sapiens, 96 h), 8.9 nM. In addition, the EC50 in test [4] worked out at 10 nM.
For `COc1ccc(CN2CCC(c3ccc4nc(C(=O)N5CCN(Cc6ccc(C(F)(F)F)cc6F)CC5)[nH]c4c3)CC2)cn1` [Example 38], in that order: 59 nM, 8.1 nM and 13 nM.
For `COc1ccc(CN2CCC(c3cc4cc(C(=O)N5CCN(Cc6ccc(C(F)(F)F)cc6)CC5)n(C)c4cn3)CC2)cn1` [Example 44], in that order: 87 nM, 4.2 nM and 5.2 nM.
For `COc1ccc(CN2CCC(c3ccn4nc(C(=O)N5CCN(Cc6ccc(C(F)(F)F)cc6)CC5)cc4c3)CC2)cn1` [Example 49], in that order: 18 nM, 2.8 nM and 6.5 nM.
Take `COc1cnc(CN2CCC(c3ccn4nc(C(=O)N5CCN(Cc6ccc(C(F)(F)F)cc6)CC5)cc4c3)CC2)cn1` [Example 50]: in test [2] (Homo sapiens, 96 h), the IC50 worked out at 4 nM. Besides, in test [4], the midpoint of the response, the EC50, lay at 14 nM.
`COc1ccc(CN2CCC(n3cc4cc(C(=O)N5CCN(Cc6ccc(C(F)(F)F)cc6)CC5)ccc4n3)CC2)cn1` [Example 57] had a concentration for a half-maximal effect (EC50) in test [4] of 1.8 nM.
On to `CCOc1cnc(CN2CCC(n3cc4cc(C(=O)N5CCN(Cc6ccc(C(F)(F)F)cc6)CC5)ccc4n3)CC2)cn1` [Example 58], for which, in test [2] (Homo sapiens, 96 h), the IC50 amounted to 0.55 nM. Moreover, in test [4], the EC50 was found to be 0.86 nM.
Turning to `CCOc1cnc(CN2CCC(c3ccc4c(c3)cc(C(=O)N3CCN(Cc5ccc(C#N)cc5)CC3)n4C)CC2)cn1` [Example 66], the IC50 in test [1] (setting [5]) worked out at 120 nM; in test [2] (Homo sapiens, 96 h) it was 6.2 nM. Moreover, in test [3] (1 mg/kg), the “Anti-tumor effect, regression rate” value is 91% regression. The EC50 in test [4] came to 2.8 nM.
Take `CCOc1cnc(CN2CCC(c3ccc4cc(C(=O)N5CCN(Cc6ccc(C#N)cc6)CC5)n(C)c4c3)CC2)cn1` [Example 69]: the IC50 was 22 nM in test [1] (setting [5]) and 3.2 nM in test [2] (Homo sapiens, 96 h). The “Anti-tumor effect, regression rate” value in test [3] (1 mg/kg) is listed as 87% regression.
